In brackets after ≈: the same amount, converted by molar mass.
Key:
[1] = test system: Pseudomonas aeruginosa; experiment: Compound was evaluated for in vitro antibacterial activity against gram negative organism Pseudomonas aeruginosa strain DRCC 135; format: functional
[2] = test system: Enterococcus faecalis; experiment: Compound was evaluated for in vitro antibacterial activity against gram positive organism Streptococcus faecalis strain ATCC 49384; format: functional
[3] = test system: Klebsiella pneumoniae; experiment: Compound was evaluated for in vitro antibacterial activity against gram negative organism Klebsiella pneumoniae strain DRCC 136; format: functional
[4] = test system: Staphylococcus aureus; experiment: Compound was evaluated for in vitro antibacterial activity against gram positive organism Staphylococcus aureus strain ATCC 29213; format: functional
[5] = test system: Staphylococcus aureus; experiment: Compound was evaluated for in vitro antibacterial activity against gram positive organism Staphylococcus aureus strain ATCC 33591; format: functional
[6] = test system: Pseudomonas aeruginosa; experiment: Compound was evaluated for in vitro antibacterial activity against gram negative organism Pseudomonas aeruginosa strain DRCC 131; format: functional
[7] = test system: Escherichia coli; experiment: Compound was evaluated for in vitro antibacterial activity against gram negative organism Escherichia coli strain DRCC 091; format: functional
[8] = test system: Staphylococcus aureus; experiment: Compound was evaluated for in vitro antibacterial activity against gram positive organism Staphylococcus aureus strain MTCC 737; format: functional
[9] = test system: Salmonella enterica subsp. enterica serovar Abony; experiment: Compound was evaluated for in vitro antibacterial activity against gram negative organism Salmonella abony strain NCIM 2257; format: functional
[10] = test system: Pseudomonas aeruginosa; experiment: Compound was evaluated for in vitro antibacterial activity against gram negative organism Pseudomonas aeruginosa strains ATCC 27853; format: functional
[11] = test system: Salmonella typhimurium; experiment: Compound was evaluated for in vitro antibacterial activity against gram negative organism Salmonella Typhimurium MTCC 98; format: functional, Salmonella enterica subsp. enterica serovar Typhimurium; conditions: Salmonella enterica
[12] = test system: Staphylococcus aureus; experiment: Compound was evaluated for in vitro antibacterial activity against gram positive organism Staphylococcus aureus strain ATCC 33592; format: functional
[13] = test system: Klebsiella pneumoniae; experiment: Compound was evaluated for in vitro antibacterial activity against gram negative organism Klebsiella pneumoniae strain ATCC 10031; format: functional
[14] = test system: Staphylococcus aureus; experiment: Compound was evaluated for in vitro antibacterial activity against gram positive organism Staphylococcus aureus strain ATCC 6538P; format: functional
[15] = test system: Escherichia coli; experiment: Compound was evaluated for in vitro antibacterial activity against gram negative organism Escherichia coli strain DRCC 134; format: functional
[16] = test system: Escherichia coli; experiment: Compound was evaluated for in vitro antibacterial activity against gram negative organism Escherichia coli strain ATCC 35218; format: functional
[17] = test system: Pseudomonas aeruginosa; experiment: Compound was evaluated for in vitro antibacterial activity against gram negative organism Pseudomonas aeruginosa strain MTCC 1688; format: functional
[18] = test system: Streptococcus pyogenes; experiment: Compound was evaluated for in vitro antibacterial activity against gram positive organism Streptococcus pyogenes strain DRCC 092; format: functional
[19] = test system: Pseudomonas fluorescens; experiment: Compound was evaluated for in vitro antibacterial activity against gram negative organism Pseudomonas fluorescence strain DRCC 008; format: functional
[20] = test system: Klebsiella pneumoniae; experiment: Compound was evaluated for in vitro antibacterial activity against gram negative organism Klebsiella pneumoniae strain DRCC 132; format: functional
[21] = test system: Enterococcus faecalis; experiment: Compound was evaluated for in vitro antibacterial activity against gram positive organism Streptococcus faecalis strain ATCC 51299; format: functional
[22] = test system: Escherichia coli; experiment: Compound was evaluated for in vitro antibacterial activity against gram negative organism Escherichia coli strain ATCC 25922; format: functional
[23] = test system: Enterococcus faecalis; experiment: Compound was evaluated for in vitro antibacterial activity against gram positive organism Streptococcus faecalis strain ATCC 29212; format: functional
[24] = test system: Pseudomonas aeruginosa; experiment: Compound was evaluated for in vitro antibacterial activity against gram negative organism Pseudomonas aeruginosa strain DRCC 137; format: functional
[25] = test system: Staphylococcus epidermidis; experiment: Compound was evaluated for in vitro antibacterial activity against gram positive organism Staphylococcus epidermidis strain ATCC 12228; format: functional
[26] = test system: Salmonella typhi; experiment: Compound was evaluated for in vitro antibacterial activity against gram negative organism Salmonella typhi strain MTCC 531; format: functional, Salmonella enterica subsp. enterica serovar Typhi; conditions: Salmonella enterica
[27] = test system: Escherichia coli; experiment: Compound was evaluated for in vitro antibacterial activity against gram negative organism Escherichia coli strain DRCC 133; format: functional
[28] = test system: Pseudomonas aeruginosa; experiment: Compound was evaluated for in vitro antibacterial activity against gram negative organism Pseudomonas aeruginosa strainsATCC 27853; format: functional; conditions: ATCC 27853
[29] = test system: Enterococcus faecalis; experiment: Compound was evaluated for in vitro antibacterial activity against gram positive organism Streptococcus faecalis strainATCC 49384; format: functional; conditions: ATCC 49384
[30] = test system: Staphylococcus aureus; experiment: Compound was evaluated for in vitro antibacterial activity against gram positive organism Staphylococcus aureus strainATCC 6538P; format: functional; conditions: ATCC 6538P
[31] = test system: Pseudomonas fluorescens; experiment: Compound was evaluated for in vitro antibacterial activity against gram negative organism Pseudomonas fluorescence strain NCIMB 10586; format: functional

| SMILES | MIC [1] [µg/mL] | MIC [2] [µg/mL] | MIC [3] [µg/mL] | MIC [4] [µg/mL] | MIC [5] [µg/mL] | MIC [6] [µg/mL] | MIC [7] [µg/mL] | MIC [8] [µg/mL] | MIC [9] [µg/mL] | MIC [11] [µg/mL] | MIC [12] [µg/mL] | MIC [13] [µg/mL] | MIC [15] [µg/mL] | MIC [17] [µg/mL] | MIC [19] [µg/mL] | MIC [20] [µg/mL] | MIC [23] [µg/mL] | MIC [25] [µg/mL] | MIC [26] [µg/mL] | MIC [27] [µg/mL] | other results |
| --- | --- | --- | --- | --- | --- | --- | --- | --- | --- | --- | --- | --- | --- | --- | --- | --- | --- | --- | --- | --- | --- |
| CN[C@@H]1CN(c2cc3c(cc2F)c(=O)c(C(=O)O)cn3-c2ccccc2F)C[C@H]1NC.O=C(O)C(F)(F)F | > 8 | 4 | 2 | 4 | 1 | 0.5 | > 8 | 4 | 1 | 1 | 4 | 0.06 | > 8 | 4 | > 8 | > 8 | 4 | 2 | 4 | > 8 | MIC [10]: 4 µg/mL; MIC [14]: 0.5 µg/mL; MIC [16]: 0.5 µg/mL; MIC [18]: 0.03 µg/mL; MIC [21]: 2 µg/mL; MIC [22]: 1 µg/mL; MIC [24]: > 8 µg/mL |
| N[C@@H]1CN(c2cc3c(cc2F)c(=O)c(C(=O)O)cn3C2CC2)C[C@H]1N.O=C(O)C(F)(F)F | > 8 |  | 4 | 2 | 2 | > 8 | > 8 | 2 | 2 | > 8 | 8 | 0.125 | > 8 | 0.5 | 1 | > 8 | 2 | 2 | 1 | > 8 | MIC [28]: 4 µg/mL; MIC [29]: 4 µg/mL; MIC [16]: 1 µg/mL; MIC [18]: 1 µg/mL; MIC [21]: 1 µg/mL; MIC [22]: 0.25 µg/mL; MIC [30]: 2 µg/mL; MIC [24]: > 8 µg/mL |
| Cl.N[C@@H]1CN(c2cc3c(cc2F)c(=O)c(C(=O)O)cn3-c2ccc(F)cc2)C[C@H]1N | > 8 | 1 | > 8 | 1 | 1 | 1 | > 8 | 1 | 4 | 1 | 1 | 1 | > 8 | 2 | 2 | > 8 | 2 | 1 | > 8 | > 8 | MIC [10]: 8 µg/mL; MIC [14]: 1 µg/mL; MIC [16]: 1 µg/mL; MIC [18]: 0.5 µg/mL; MIC [21]: 1 µg/mL; MIC [22]: 1 µg/mL; MIC [24]: > 8 µg/mL |
| CCn1cc(C(=O)O)c(=O)c2cc(F)c(N3C[C@@H](N)[C@H](N)C3)c(F)c21.Cl | > 8 | 4 | > 8 | 2 | 2 | > 8 | > 8 | 2 | 8 | 0.5 | 4 | 0.125 | > 8 | 1 | 4 | > 8 | 4 | 2 | 1 | > 8 | MIC [10]: > 8 µg/mL; MIC [14]: 2 µg/mL; MIC [16]: 1 µg/mL; MIC [18]: 2 µg/mL; MIC [21]: 2 µg/mL; MIC [22]: 0.5 µg/mL; MIC [24]: > 8 µg/mL |
| CN[C@@H]1CN(c2cc3c(cc2F)c(=O)c(C(=O)O)cn3-c2ccc(F)cc2)C[C@H]1NC.Cl | > 8 | 0.5 | 0.5 | 0.5 | 1 | 0.25 | > 8 | 0.5 | 0.5 | 1 | 0.25 | 0.125 | > 8 | 2 | 2 | > 8 | 0.5 | 1 | 0.25 | > 8 | MIC [10]: 4 µg/mL; MIC [14]: 0.5 µg/mL; MIC [16]: 1 µg/mL; MIC [18]: 1 µg/mL; MIC [21]: 0.25 µg/mL; MIC [22]: 0.5 µg/mL; MIC [24]: 1 µg/mL |
| CN[C@@H]1CN(c2cc3c(cc2F)c(=O)c(C(=O)O)cn3C2CC2)C[C@H]1NC.Cl | > 8 | 4 | 0.5 | 1 | 1 | 2 | > 8 | 1 | 1 | 0.5 | 0.5 | 0.06 | > 8 | 2 | > 8 | > 8 | 2 | 0.5 | 0.5 | > 8 | MIC [10]: 4 µg/mL; MIC [14]: 0.5 µg/mL; MIC [16]: 0.25 µg/mL; MIC [18]: 0.06 µg/mL; MIC [21]: 0.25 µg/mL; MIC [22]: 0.125 µg/mL; MIC [24]: > 8 µg/mL |
| O=C(O)c1cn(C2CC2)c2cc(N3CCNCC3)c(F)cc2c1=O [CIPROFLOXACIN] | > 8 | 4 (≈ 12.1 µM) | 1 (≈ 3.02 µM) | 2 (≈ 6.04 µM) | 0.25 (≈ 0.754 µM) | > 8 | > 8 | 0.25 (≈ 0.754 µM) | 1 (≈ 3.02 µM) | 0.25 (≈ 0.754 µM) | 4 (≈ 12.1 µM) | 0.03 (≈ 0.0905 µM) | > 8 | 0.06 (≈ 0.181 µM) | 0.5 (≈ 1.51 µM) | > 8 | 0.125 (≈ 0.377 µM) | 1 (≈ 3.02 µM) | 0.25 (≈ 0.754 µM) | > 8 | MIC [31]: > 8 µg/mL; MIC [14]: 0.5 µg/mL (≈ 1.51 µM) |
| CCn1cc(C(=O)O)c(=O)c2cc(F)c(N3CCNCC3)cc21 [NORFLOXACIN] | > 8 | 4 (≈ 12.5 µM) | 0.5 (≈ 1.57 µM) | 4 (≈ 12.5 µM) | 1 (≈ 3.13 µM) | > 8 | > 8 | 4 (≈ 12.5 µM) | 0.5 (≈ 1.57 µM) | 0.5 (≈ 1.57 µM) | 4 (≈ 12.5 µM) | 0.03 (≈ 0.0939 µM) | > 8 | 0.125 (≈ 0.391 µM) | 0.25 (≈ 0.783 µM) | > 8 | 1 (≈ 3.13 µM) | 1 (≈ 3.13 µM) | 0.25 (≈ 0.783 µM) | > 8 | MIC [31]: > 8 µg/mL; MIC [10]: 4 µg/mL (≈ 12.5 µM); MIC [14]: 1 µg/mL (≈ 3.13 µM); MIC [16]: 0.125 µg/mL (≈ 0.391 µM); MIC [18]: 2 µg/mL (≈ 6.26 µM); MIC [21]: 2 µg/mL (≈ 6.26 µM); MIC [22]: 0.03 µg/mL (≈ 0.0939 µM); MIC [24]: 2 µg/mL (≈ 6.26 µM) |
| CN[C@@H]1CN(c2c(F)c(N)c3c(=O)c(C(=O)O)cn(C4CC4)c3c2F)C[C@H]1NC.Cl | > 8 | 1 | 0.5 | 0.25 | 0.25 | 1 | > 8 | 0.25 | 0.25 | 0.125 | 0.25 | 0.06 | > 8 | 0.5 | > 8 | > 8 | 1 | 1 | 0.25 | > 8 | MIC [10]: 4 µg/mL; MIC [14]: 0.5 µg/mL; MIC [16]: 0.5 µg/mL; MIC [18]: 0.03 µg/mL; MIC [21]: 0.25 µg/mL; MIC [22]: 0.06 µg/mL; MIC [24]: > 8 µg/mL |
| CCn1cc(C(=O)O)c(=O)c2cc(F)c(N3C[C@@H](NC)[C@H](NC)C3)c(F)c21.Cl | > 8 | 8 | 8 | 4 | 1 | > 8 | > 8 | 4 | 8 | 1 | 4 | 0.5 | > 8 | 1 | 4 | > 8 | 4 | 2 | 1 | > 8 | MIC [10]: 8 µg/mL; MIC [14]: 4 µg/mL; MIC [16]: 1 µg/mL; MIC [18]: 4 µg/mL; MIC [21]: 2 µg/mL; MIC [22]: 0.5 µg/mL; MIC [24]: 8 µg/mL |

Source: ChEMBL document CHEMBL1131559, “Novel quinolone derivatives as potent antibacterials” (1998)
